Test systems include TK-10; HCT-116; BT-549; Malme-3M; CAKI-1; NCI/ADR-RES; DU-145; 786-0; SF-539; UACC-62; HOP-62; NCI-H460; MDA-N; OVCAR-8; MDA-MB-231; UO-31; RXF 393; NCI-H522; MDA-MB-435; HT-29.
Holding throughout (experiment): NCI anticancer screen, dose series, 48 h

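1) Cells in 96-well plates. 2) Compound, 48 h, 5 concentrations. 3) Linear interpolation between surrounding doses. 4) Unreached endpoint = highest concentration. Here, GI50 denotes the concentration required for 50% inhibition of growth.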 Active and inactive are the calls of the source. Rule as the data show it: active = GI50 up to about 1.1 µM and inactive = higher.

The source of these data is ChEMBL document CHEMBL1201862, “PubChem BioAssay data set” (2004).

In the case of `COc1ccc2c(c1OC)C(=O)N1C2=Cc2c(cc3c(c2OC)OCO3)CC1N(C)C` (stereo unspecified), the GI50 is 96.6 µM (inactive) with TK-10; 35.3 µM (inactive) in the assay with HCT-116; 33.3 µM (inactive) in the assay with BT-549; 51.4 µM (inactive) in the assay with Malme-3M; > 100 µM (inactive) in the assay on CAKI-1; 26.4 µM (inactive) in the assay on NCI/ADR-RES. For the same compound, the GI50 was 43.8 µM (inactive) in the assay with DU-145; > 100 µM (inactive) with 786-0; 59.2 µM (inactive) in the assay with SF-539; 27.5 µM (inactive) with UACC-62; 45.9 µM (inactive) in the assay on HOP-62; 28.8 µM (inactive) with NCI-H460. In addition, the GI50 is 95.3 µM (inactive) in the assay with MDA-N; 35.7 µM (inactive) in the assay with OVCAR-8; 81.1 µM (inactive) in the assay with MDA-MB-231; 29.9 µM (inactive) in the assay with UO-31; 54.5 µM (inactive) with RXF 393; 28.9 µM (inactive) with NCI-H522. The GI50 in the assay on MDA-MB-435 was 53.3 µM (inactive).

Regarding `Cc1n[nH]c(=O)n1-c1cccnc1`, the GI50 in the assay on TK-10, with HCT-116, in the assay with BT-549, with Malme-3M, in the assay on CAKI-1 and in the assay with NCI/ADR-RES was > 100 µM (inactive) each time. For the same compound, the GI50 in the assay on DU-145, in the assay with 786-0, in the assay on SF-539, in the assay on HOP-62, in the assay on NCI-H460 and in the assay on MDA-N was > 100 µM (inactive) throughout. Moreover, the GI50 with OVCAR-8, in the assay with MDA-MB-231, in the assay with UO-31, in the assay with HT-29, with RXF 393 and with NCI-H522 was > 100 µM (inactive) throughout. In the assay with MDA-MB-435, the GI50 is > 100 µM (inactive).

Take `COc1cc([C@@H]2c3cc4c(cc3[C@@H](c3c(O)cc(O)c5c3O[C@H](c3ccc(O)c(O)c3)[C@H](OC(=O)c3cc(O)c(O)c(O)c3)C5)[C@H]3COC(=O)[C@H]23)OCO4)cc(OC)c1O`: the GI50 with TK-10 is 92.3 µM (inactive); in the assay with HCT-116, 23.7 µM (inactive); in the assay with BT-549, > 100 µM (inactive); with Malme-3M, > 100 µM (inactive); in the assay on CAKI-1, 76.6 µM (inactive); with NCI/ADR-RES it was 54.8 µM (inactive). For the same compound, the GI50 is 32 µM (inactive) in the assay on DU-145; 22.5 µM (inactive) in the assay with 786-0; 24.1 µM (inactive) in the assay on SF-539; 98.9 µM (inactive) with UACC-62; 51.8 µM (inactive) in the assay on HOP-62; 32.5 µM (inactive) in the assay on NCI-H460. Moreover, the GI50 is 18.4 µM (inactive) in the assay with MDA-N; 35.6 µM (inactive) in the assay on OVCAR-8; 57.8 µM (inactive) with MDA-MB-231; 25 µM (inactive) with HT-29; 59.4 µM (inactive) in the assay on RXF 393; 24 µM (inactive) with NCI-H522. Further, the GI50 in the assay on MDA-MB-435 is 22.6 µM (inactive).

In the case of `CC1=[N+]([O-])C(C)(C)N(N=O)C1(C)C`, the GI50 with TK-10, in the assay on HCT-116, with BT-549, in the assay with Malme-3M, in the assay on CAKI-1 and in the assay on NCI/ADR-RES was > 10 µM (inactive) each time. For the same compound, the GI50 in the assay on DU-145, in the assay with 786-0, in the assay with HOP-62, in the assay with NCI-H460, in the assay with MDA-N and in the assay on OVCAR-8 was > 10 µM (inactive) each time. Further, the GI50 in the assay on MDA-MB-231, in the assay with UO-31, in the assay on HT-29, in the assay with RXF 393, with NCI-H522 and in the assay on MDA-MB-435 was > 10 µM (inactive) each time.

In the case of `O=c1cnn(C/C=C/CO)c(=O)[nH]1`, the GI50 in the assay on TK-10, with BT-549, in the assay with Malme-3M, in the assay with CAKI-1, in the assay with NCI/ADR-RES and in the assay on DU-145 was > 100 µM (inactive) throughout. In addition, the GI50 in the assay with HOP-62, with NCI-H460, with MDA-N, with OVCAR-8, with MDA-MB-231 and in the assay with UO-31 was > 100 µM (inactive) throughout. In addition, the GI50 in the assay with RXF 393, with NCI-H522 and in the assay on MDA-MB-435 was > 100 µM (inactive) throughout.

For the compound `CSc1ccc2c(cc1=O)[C@@H](NC(C)=O)CCc1cc(O)c(O)c(O)c1-2`, the GI50 was 18.8 µM (inactive) in the assay with TK-10; 30.6 µM (inactive) with HCT-116; 29.6 µM (inactive) with BT-549; 57 µM (inactive) with Malme-3M; 48.4 µM (inactive) with CAKI-1; 19.9 µM (inactive) in the assay with NCI/ADR-RES. In addition, the GI50 in the assay on DU-145 is > 100 µM (inactive); in the assay with 786-0 it was 13.8 µM (inactive); in the assay on UACC-62, 36.1 µM (inactive); with HOP-62 it was 18 µM (inactive); in the assay with NCI-H460, 16.4 µM (inactive); in the assay with MDA-N it was 11.3 µM (inactive). The GI50 in the assay on OVCAR-8 was 19.1 µM (inactive); with MDA-MB-231 it was 23.9 µM (inactive); in the assay with UO-31, 21.6 µM (inactive); in the assay on HT-29, 9.82 µM (inactive); with RXF 393 it was 72.4 µM (inactive); with NCI-H522, 16.2 µM (inactive). The GI50 with MDA-MB-435 is 10.4 µM (inactive).

For the compound `CCCCc1ccc(Nc2nc(N)c3ncn(COCCO)c3n2)cc1`, the GI50 is 52.6 µM (inactive) with TK-10; 26.9 µM (inactive) with HCT-116; 25.5 µM (inactive) with BT-549; 25.7 µM (inactive) in the assay on Malme-3M; 38.7 µM (inactive) in the assay on CAKI-1; 20.9 µM (inactive) in the assay with NCI/ADR-RES. The GI50 in the assay on DU-145 was 37.7 µM (inactive); in the assay with 786-0, 25.5 µM (inactive); in the assay with SF-539 it was 28.2 µM (inactive); in the assay with UACC-62 it was 16.8 µM (inactive); with HOP-62, 17.1 µM (inactive); in the assay with MDA-N, 37.2 µM (inactive). In addition, the GI50 was 25.9 µM (inactive) in the assay on OVCAR-8; 29 µM (inactive) in the assay on MDA-MB-231; 29.9 µM (inactive) in the assay with UO-31; 24.4 µM (inactive) in the assay with HT-29; 30.1 µM (inactive) with RXF 393; 26.1 µM (inactive) in the assay on NCI-H522. Moreover, the GI50 in the assay on MDA-MB-435 is 22.1 µM (inactive).

Regarding `CC(=O)O[C@H]1CC[C@@]2(C)C(=CC[C@@H]3[C@@H]2CC[C@]2(C)Nc4c(cnn4S(C)(=O)=O)C[C@@H]32)C1`, the GI50 with BT-549 is 23.3 µM (inactive); with Malme-3M it was > 100 µM (inactive); in the assay on CAKI-1, 49.9 µM (inactive); in the assay with NCI/ADR-RES, > 100 µM (inactive); in the assay on DU-145, 49.5 µM (inactive); in the assay on UACC-62 it was 47.3 µM (inactive). In addition, the GI50 in the assay with HOP-62 is 89.9 µM (inactive); in the assay on NCI-H460, 44.4 µM (inactive); in the assay with MDA-N it was 60.1 µM (inactive); with OVCAR-8, > 100 µM (inactive); in the assay with MDA-MB-231 it was > 100 µM (inactive); in the assay with UO-31, 76.7 µM (inactive). Moreover, the GI50 in the assay with HT-29 is 21.9 µM (inactive); in the assay with RXF 393, 18.1 µM (inactive); in the assay on NCI-H522, 41.1 µM (inactive); in the assay on MDA-MB-435, 46.8 µM (inactive).

`CNc1cc(Cl)ccc1C(=O)N1CCC[C@H]1CO`: the GI50 in the assay on TK-10, with HCT-116, in the assay with BT-549, in the assay on Malme-3M, in the assay on CAKI-1 and with NCI/ADR-RES was > 100 µM (inactive) throughout. Besides, the GI50 in the assay on DU-145 is > 100 µM (inactive); in the assay with 786-0 it was > 100 µM (inactive); in the assay with SF-539, > 100 µM (inactive); in the assay with UACC-62 it was > 100 µM (inactive); in the assay with HOP-62, > 100 µM (inactive); in the assay with MDA-N it was 97.1 µM (inactive). The GI50 in the assay on OVCAR-8, with MDA-MB-231, with UO-31, in the assay with HT-29, in the assay with RXF 393 and in the assay on NCI-H522 was > 100 µM (inactive) throughout. The GI50 with MDA-MB-435 was > 100 µM (inactive).

Consider `COc1ccc2[nH]c3c(C)c4cnccc4c(C)c3c2c1`, for which the GI50 in the assay on TK-10 was 5.69 µM (inactive); with HCT-116 it was 1.25 µM (inactive); with BT-549, 7.48 µM (inactive); in the assay on Malme-3M, 1.45 µM (inactive); in the assay on CAKI-1, 6.27 µM (inactive); in the assay on NCI/ADR-RES, 1.22 µM (inactive). The GI50 is 2.93 µM (inactive) with DU-145; 0.424 µM (active) in the assay with 786-0; 1.88 µM (inactive) in the assay on SF-539; > 10 µM (inactive) in the assay with UACC-62; 1.43 µM (inactive) in the assay with HOP-62; 1.78 µM (inactive) in the assay on NCI-H460. The GI50 with MDA-N is 1.85 µM (inactive); in the assay with OVCAR-8, 1.01 µM (active); in the assay on MDA-MB-231, 2.8 µM (inactive); in the assay with HT-29 it was 1.11 µM (active); in the assay on RXF 393, 2.49 µM (inactive); with NCI-H522 it was 2.02 µM (inactive). For the same compound, the GI50 in the assay on MDA-MB-435 is 1.48 µM (inactive).

For the compound `COc1cccc2c1C(=O)c1c(O)c3c(c(O)c1C2=O)CC(O)(C(O)CO)CC3OC1CC(N2CCOCC2)C(O)C(C)O1` (stereo unspecified), the GI50 is 0.00377 µM (active) in the assay with TK-10; < 0.001 µM (active) in the assay with HCT-116; 0.0294 µM (active) in the assay with BT-549; 0.00251 µM (active) in the assay on Malme-3M; 0.00175 µM (active) with CAKI-1; 0.0162 µM (active) in the assay on NCI/ADR-RES. Further, the GI50 with DU-145 is 0.00703 µM (active); in the assay on 786-0, 0.0277 µM (active); in the assay with SF-539 it was 0.0043 µM (active); with UACC-62, < 0.001 µM (active); in the assay with HOP-62 it was 0.00315 µM (active); in the assay with NCI-H460, < 0.001 µM (active). In addition, the GI50 in the assay on MDA-N was 0.0143 µM (active); in the assay with OVCAR-8, 0.00182 µM (active); in the assay on MDA-MB-231 it was 0.0165 µM (active); in the assay with HT-29, 0.00308 µM (active); in the assay on RXF 393 it was 0.0155 µM (active); in the assay on NCI-H522, 0.00273 µM (active). Further, in the assay on MDA-MB-435, the GI50 is 0.00883 µM (active).
